Patent publication US6703020B1 (Board of Regents, The University of Texas System, priority 1999, dated 2004)

Assays:
[1] = test system: VEGFR2 (KDR/Fc); test: Coprecipitation assay, VEGF with VEGFR2/Fc; type: binding; conditions: 40 ng VEGF, 200 ng receptor/Fc
Description: 200 ng of soluble forms of VEGFR1 (Flt-1/Fc) or VEGFR2 (KDR/Fc, R&D Systems, Minneapolis, Minn.) were added for a total volume of 50 μl and incubated for 2 hrs. The receptor/Fc constructs were precipitated using Protein A-sepharose beads and the resulting precipitate was washed 4 times with binding buffer.
Reducing sample buffer was added to the pellet and supernatant of each reaction and both were analyzed by 12% SDS-PAGE and transferred to PVDF membranes. […] The soluble receptor/Fc constructs were also detected by using peroxidase-conjugated goat anti-human Fc (Kirkegaard & Perry Laboratories, Inc.)
The receptor/Fc constructs were precipitated by incubation with Protein A sepharose beads. The precipitate was washed and resuspended in reducing sample buffer and separated by 12% SDS-PAGE and transferred to PVDF.

[2] = Blood clearance of radioiodinated 2C3-GUS in mice; type: in vivo, mouse; conditions: intravenous
From the text: 2C3-GUS was radioiodinated with ^125I to a specific activity of 5×10^6 cpm/μg.

[3] = test system: human NCI-H358 NSCLC tumors; test: Localization of 2C3-GUS in SCID mice bearing NCI-H358 tumors; type: in vivo, mouse
[4] = test system: A673 rhabdomyosarcoma; test: In vivo tumor growth inhibition, newly implanted A673; parameters: species or system mouse; conditions: 100 μg i.p. 2 times per wk from day 1, nu/nu mice; controls approximately 1000 mm^3
Description: (§1) Nu/nu mice were injected subcutaneously with either 1×10^7 NCI-H358 NSCLC cells or 5×10^6 A673 rhabdomyosarcoma cells on day 0. […] The tumors were then measured twice per wk for a period of approximately six wk for the NCI-H358 bearing mice and four wk for the A673 bearing mice. Tumor volume was calculated according to the formula: volume=L×W×H, where L=length, W=width, H=height.

[5] = test system: NCI-H358 NSCLC; test: In vivo tumor growth inhibition, newly implanted NCI-H358; parameters: species or system mouse
Description: as §1

[6] = test system: A673 rhabdomyosarcoma and LS174T colon adenocarcinoma tumors; test: Treatment of mice with established A673 and LS174T tumors; type: in vivo, mouse
[7] = test system: VEGFR2 (KDR/Flk-1); test: ELISA of VEGF binding to VEGFR2-coated wells; parameters: species or system mouse
[8] = test system: NCI-H358 NSCLC tumors; test: In vivo tumor therapy of established NCI-H358 xenografts; parameters: species or system mouse
Description: (§2) Male nu/nu mice bearing subcutaneous NCI-H358 tumors or HT1080 fibrosarcoma 200-400 mm^3 in size were injected i.p. with test or control antibodies. The NCI-H358 bearing mice were treated with 100 μg of antibodies per injection three times a week during the first week and twice a week during the second and third week. The mice were then switched to 50 μg per injection every five days. The HT1080 bearing mice were treated with 100 μg of the indicated antibody or saline every other day throughout the duration of the study. In both studies, mice were sacrificed when their tumors reached 2500 mm^3 in size or earlier if tumors began to ulcerate.
Doses were 50-100 μg every 3-5 days. […] In addition to measuring mean tumor volume (FIG. 4), photographs of the mice from each treatment group were also taken to show the differences in tumor size and appearance at the end of the study.

[9] = test system: NCI-H358 NSCLC and HT29 colon adenocarcinoma xenografts; test: In vivo localization to human tumor xenografts in mice; parameters: species or system mouse; key to Immunohistochemical Reactivity Heart / Immunohistochemical Reactivity Lung / Immunohistochemical Reactivity Liver / Immunohistochemical Reactivity Kidney / Immunohistochemical Reactivity Intestine / Immunohistochemical Reactivity Spleen / Immunohistochemical Reactivity Tumor: −, negative; +/−, very weak; 1+, weak; 2+, moderate; 3+, strong; 4+, very strong
Description: Tumors were grown subcutaneously in immunocompromised mice (NCI-H358 NSCLC in nu/nu mice and HT29 colon adenocarcinoma in SCID mice) until the tumor volume was approximately 1 cm^3. 100 μg of unlabeled antibody for studies using SCID mice, or 100 μg of biotinylated antibody for studies using nude mice, was injected intravenously via a tail vein. Twenty four hours later, the mice were anesthetized, perfused with PBS, and tumor and organs including heart, lungs, liver, kidneys, intestines and spleen were collected and snap frozen in liquid nitrogen.
The tumor and organs from each mouse were sectioned on a cryostat and stained for antibody immunohistochemically as above, with the exception that sections from the nude mice were developed using peroxidase labeled streptavidin-biotin complex (Dako, Carpinteria, Calif.) and the sections from the SCID mice were developed using two peroxidase-conjugated secondary antibodies, a goat anti-mouse IgG+IgM followed by a rabbit anti-goat IgG.
100 μg of GV39M and 3E7 or isotype-matched control IgG were injected into SCID mice bearing HT29 human colonic adenocarcinomas. Twenty-four hours later, the mice were sacrificed, exsanguinated and the tumors and tissues were removed.

[10] = test system: KDR on ABAE cells; test: 125I-VEGF binding studies on KDR expressing endothelial cells; type: cell-based, bovine
[11] = test system: Human tumors (various); test: Immunohistochemistry on frozen sections of human tumors; type: binding; parameters: key: −, negative; +/−, very weak; 1+, weak; 2+, moderate; 3+, strong; 4+, very strong; conditions: acetone fixed frozen sections; 2C3 and 12D7 at 20 μg/ml, others 5-10 μg/ml
Description: (§3) Tumors were snap frozen in liquid nitrogen and stored at −70° C. Frozen samples of tumor specimens from patients were obtained from the National Cancer Institute Cooperative Human Tissue Network (Southern Division, Birmingham, Ala.). Immununohistochemistry was performed as described by Burrows et al. (1995).
(§4) Tumors examined through immunohistochemistry were human tumors of various types from cancer patients, transplantable human tumor xenografts of various types grown in mice, guinea pig Line 10 tumor grown in guinea pig, and mouse 3LL tumor grown in mice (see legend to Table 3 for details).

[12] = test system: Human tumor xenografts (NCI-H358 NSCLC, NCI-H460 NSCLC, HT29 colon adenocarcinoma, L540 Hodgkin's lymphoma); test: Immunohistochemistry on frozen sections of human tumor xenografts; type: binding, mouse; parameters: key: −, negative; +/−, very weak; 1+, weak; 2+, moderate; 3+, strong; 4+, very strong; conditions: acetone fixed frozen sections; 2C3 and 12D7 at 20 μg/ml, others 5-10 μg/ml
Description: (§5) Guinea pig line 10 hepatocellular carcinoma tumor cells (obtained from Dr. Ronald Neuman, NIH, Bethesda, Md.) were grown in strain 2 guinea pigs (NCI, Bethesda, Md.). The human tumors NCI-H358 non-small cell lung carcinoma (NSCLC), NCI-H460 NSCLC (both obtained from Dr. Adi Gazdar, UT Southwestern, Dallas, Tex.), HT29 colon adenocarcinoma (American Type Culture Collection), and L540CY Hodgkin's lymphoma (obtained from Professor V. Diehl, Cologne, Germany) were grown as xenografts in CB17 SCID mice (Charles River, Wilmington, Mass.).
as §3
The immunohistochemical reactivity of 3E7, GV39M, and 11B5 on NCI-H358 human NSCLC xenografts was determined and compared with control antibodies (an IgG of irrelevant specificity; A-20, a rabbit anti-VEGF antibody; and MECA 32, a rat anti-mouse endothelial cell antibody). 8 μm frozen sections of NCI-H358 human NSCLC grown in SCID mice were stained using an indirect immunoperoxidase technique and were counterstained with hematoxylin.

[13] = test system: HT1080 fibrosarcoma; test: In vivo tumor therapy of established HT1080 xenografts; parameters: species or system mouse; conditions: 100 μg every two days
Description: as §2

[14] = test system: VEGFR1 (FLT-1); test: ELISA of VEGF binding to VEGFR1-coated wells
[15] = test system: mouse VEGF in mouse 3LL Lewis Lung carcinoma tumor sections; test: Immunohistochemistry on mouse 3LL tumor sections; type: binding; parameters: key: −, negative; +/−, very weak; 1+, weak; 2+, moderate; 3+, strong; 4+, very strong; conditions: acetone fixed frozen sections; 2C3 and 12D7 at 20 μg/ml, others 5-10 μg/ml
Chain of mouse VEGF in mouse 3LL Lewis Lung carcinoma tumor sections (Q00731 205-317 limits assumed): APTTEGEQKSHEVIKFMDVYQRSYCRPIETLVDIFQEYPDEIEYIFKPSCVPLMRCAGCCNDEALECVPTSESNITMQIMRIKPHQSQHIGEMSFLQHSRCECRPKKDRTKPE
Description: as §3, §4

[16] = target: T1, guinea pig VEGF in line 10 guinea pig tumor sections (Cavia porcellus, UniProt P26617); test: Immunohistochemistry on guinea pig line 10 tumor sections; type: binding; parameters: key: −, negative; +/−, very weak; 1+, weak; 2+, moderate; 3+, strong; 4+, very strong; conditions: acetone fixed frozen sections; 2C3 and 12D7 at 20 μg/ml, others 5-10 μg/ml
T1 construct: from tissue; host or cells: frozen sections of line 10 hepatocellular carcinoma grown in strain 2 guinea pigs
T1 sequence (P26617 1-164): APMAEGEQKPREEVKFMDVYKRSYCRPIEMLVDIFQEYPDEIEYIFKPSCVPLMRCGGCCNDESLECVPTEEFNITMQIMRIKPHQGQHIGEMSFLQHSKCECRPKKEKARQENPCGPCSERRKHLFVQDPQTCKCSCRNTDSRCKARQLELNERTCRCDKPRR
Description: as §5, §3

[17] = tumor-bearing mice, antibody intravenously 24 hours prior to sacrifice

In the case of 2C3 F(ab′)2: F(ab′)2 of 2C3, the “blocking of binding of VEGF to VEGFR2/Fc in solution” value [1] is reported as “blocked”.
For 2C3-GUS [Clone 2C3-GUS], the “t½ α of clearance from the blood” value [2] was “about 6 hours”, the “t½ β of clearance from the blood” value [2] was “about 25 hours” and the “localization after i.v. injection” value ([3]; SCID mice, subcutaneous NCI-H358) was “specifically localized to tumor vasculature and surrounding tumor stroma”. The “staining of normal tissues” value ([3]; mouse, in vivo, sc) was “unstained”.
For “2C3: anti-VEGF monoclonal antibody, IgG2a k, hybridoma ATCC PTA 1595; blocks VEGF binding to VEGFR2 but not VEGFR1 [Clone 2C3]”, the “final tumor volume, A673 rhabdomyosarcoma” value [4] was “approximately 150 mm^3”, the “final tumor volume, NCI-H358 NSCLC” value ([5]; 100 μg i.p. 2 times per wk from day 1, nu/nu mice, controls approximately 1000 mm^3) was “approximately 150 mm^3” and the “prevention of tumor growth at lower doses” value ([5]; 10 or 1 μg twice per wk, NCI-H358 and A673) was “less effective”. For the same substance, the “growth of established A673 rhabdomyosarcoma and LS174T colon adenocarcinoma tumors” value [6] was “significantly slowed”, the “Blocks VEGF from binding to VEGFR2” value [7] was “Yes” and the “effect on VEGF binding to VEGFR2 in ELISA” value ([7]; 100-1000 fold excess) was “blocked”. For the same substance, the “amount VEGF that bound to VEGFR2-coated ELISA wells maintained at” value ([7]; 100 fold molar excess over VEGF) was “about 92%”, the “amount VEGF that bound to VEGFR2-coated wells, % of amount bound in absence of antibody” value ([7]; 1000-fold molar excess over VEGF (1 nM)) was ~19% and the “mean tumor volume after approximately 14 wk of treatment” value ([8]; established NCI-H358, 100 μg, prolonged treatment) was 84 mm^3. For the same substance, the “mean tumor volume at the end of the study, % of the initial mean tumor volume” value ([8]; established NCI-H358, 50-100 μg i.p. every 3-5 days, approximately 10 weeks) was 30%, the “decrease in mean tumor volume” value ([8]; established NCI-H358, approximately 14 wk) was “approximately 80%” and the mean tumor weight ([8]; established NCI-H358, end of the study (day 116)) was 0.054 g. For the same substance, the “Immunohistochemical Reactivity Tumor” value ([9]; 2C3: NCI-H358 in nu/nu mice, 3E7, GV39M: HT29 in SCID mice, 24 hours after i.v.) was 3+, the “localization in the HT29 human tumor model” value ([9]; after i.v. injection) was “localized strongly to the connective tissue” and the “Immunohistochemical Reactivity Heart” value [9, 17] was “−”. For the same substance, the “Immunohistochemical Reactivity Intestine” value [9, 17] was “−”, the “Immunohistochemical Reactivity Kidney” value [9, 17] was “−” and the “Immunohistochemical Reactivity Liver” value [9, 17] was “−”. For the same substance, the “Immunohistochemical Reactivity Lung” value [9, 17] was “−”, the “Immunohistochemical Reactivity Spleen” value [9, 17] was “−” and the “blocking of 125I-VEGF binding to KDR” value [10] was “blocks VEGF from binding to KDR in a concentration dependent manner”. For the same substance, the “Endothelial Cell Staining Hu Tumor (various)” value [11] was “−”, the “Endothelial Cell Staining Xenograft (various)” value [12] was “−” and the “growth of HT1080 tumors” value [13] was “arrested the growth”. For the same substance, the “Blocks VEGF from binding to VEGFR1” value [14] was “No”, the “Endothelial Cell Staining Mouse Tumor (3LL)” value [15] was “−” and the “Endothelial Cell Staining Guinea Pig Tumor (Line 10)” value [16] was “−”.
